This is an account of results in PMC8217813, “Bridging Computational Vaccinology and Vaccine Development Through Systematic Identification, Characterization, and Downselection of Conserved and Variable Circumsporozoite Protein CD4 T Cell Epitopes From Diverse Plasmodium falciparum Strains” (Frontiers in Immunology, 2021).

In experiment [1] the target is T1, HLA A*0101 (Homo sapiens, UniProt P04439, A114D/A174V/A182V/D101N/D185E/E176A/E190D/L180R/Q94H/R68K/S129P/T187R/V100A/V91M/W191G).
T1 construct: Pure Protein, LLC (ran the assay)
Briefly: biochemical. Type of experiment: binding. The conditions noted are these: allele A0101, cell-free competition with fluorescently labeled control peptide, fluorescence polarization at 72 hours; for IC50: read-out: IC50. In general terms: Polarisation of emitted light reports the rotation of a fluorescent probe.

Experiment [2] concerns CD4 T cells co-cultured with autologous DCs from PBMCs. Type of experiment: cell-based, human. The conditions noted are these: positive = Stimulation Index ≥1.5-fold above baseline, 5 µg/mL peptide.

Peptide text beside a SMILES is read from it.

Turning to `CC(C)[C@H](NC(=O)[C@H](CO)NC(=O)[C@H](CO)NC(=O)[C@@H](N)CS)C(=O)N[C@@H](Cc1ccccc1)C(=O)N[C@@H](CC(N)=O)C(=O)N[C@H](C(=O)N[C@H](C(=O)N[C@@H](CC(N)=O)C(=O)O)C(C)C)C(C)C` [Cluster 374_3D7] (H-CSSVFNVVN-OH), the IC50 (as a rule, the concentration that gives 50% inhibition) in experiment [1] was found to be 82.5 µM.
Same read-out and setting: in the case of `CC(C)[C@H](NC(=O)[C@H](CO)NC(=O)[C@H](CS)NC(=O)[C@@H]1CCCN1C(=O)[C@H](CO)NC(=O)[C@H](Cc1c[nH]c2ccccc12)NC(=O)[C@H](CCC(=O)O)NC(=O)[C@@H](NC(=O)[C@@H](N)CO)[C@@H](C)O)C(=O)O` [Cluster 328_3D7] (H-STEWSPCSV-OH) it was 3.18 µM; in that of `CC[C@H](C)[C@H](NC(=O)[C@H](Cc1c[nH]cn1)NC(=O)[C@H](CCCCN)NC(=O)[C@H](CC(=O)O)NC(=O)[C@H](CO)NC(=O)[C@@H]1CCCN1)C(=O)N[C@@H](CCCCN)C(=O)N[C@@H](CCC(=O)O)C(=O)N[C@@H](Cc1ccc(O)cc1)C(=O)O` [CL1-62] (H-PSDKHIKEY-OH), 24.8 µM.
On to DQHIEQYLKKIQNSISTEWS [ICS3], for which the “Percentage of donors demonstrating IFN-γ responses, DR1” value in experiment [2] (DR1 donors N=5, ICCS after 14-day co-culture) amounted to 80%. In addition, in experiment [2] (DR1 donors N=5, ICCS), the “Percentage of donors demonstrating IL-2 responses, DR1” value worked out at 80%; the “Percentage of donors demonstrating IL-4 responses, DR1” value turned out to be 0%; the “Percentage of donors demonstrating IL-10 responses, DR1” value is 20%; the “Percentage of donors demonstrating TNF-α responses, DR1” value worked out at 60%. Further, in experiment [2] (DR3 donors N=6, ICCS after 14-day co-culture), the “Percentage of donors demonstrating IFN-γ responses, DR3” value is 33%. Also, in experiment [2] (DR3 donors N=6, ICCS), the “Percentage of donors demonstrating IL-2 responses, DR3” value was found to be 0%; the “Percentage of donors demonstrating IL-4 responses, DR3” value stood at 17%; the “Percentage of donors demonstrating IL-10 responses, DR3” value turned out to be 17%; the “Percentage of donors demonstrating TNF-α responses, DR3” value is reported as 0%. In addition, in experiment [2] (DR4 donors N=10, ICCS after 14-day co-culture), the “Percentage of donors demonstrating IFN-γ responses, DR4” value worked out at 30%. For the same compound, in experiment [2] (DR4 donors N=10, ICCS), the “Percentage of donors demonstrating IL-2 responses, DR4” value is on record as 40%; the “Percentage of donors demonstrating IL-4 responses, DR4” value stood at 10%; the “Percentage of donors demonstrating IL-10 responses, DR4” value is on record as 0%; the “Percentage of donors demonstrating TNF-α responses, DR4” value is listed as 40%. For the same compound, the “Percentage of donors demonstrating IFN-γ responses, DR7” value in experiment [2] (DR7 donors N=4, ICCS after 14-day co-culture) is reported as 75%. In experiment [2] (DR7 donors N=4, ICCS), the “Percentage of donors demonstrating IL-2 responses, DR7” value is recorded as 50%; the “Percentage of donors demonstrating IL-4 responses, DR7” value came out at 0%; the “Percentage of donors demonstrating IL-10 responses, DR7” value amounted to 0%; the “Percentage of donors demonstrating TNF-α responses, DR7” value is on record as 50%. In experiment [2] (DR8 donors N=4, ICCS after 14-day co-culture), the “Percentage of donors demonstrating IFN-γ responses, DR8” value is reported as 0%. Moreover, in experiment [2] (DR8 donors N=4, ICCS), the “Percentage of donors demonstrating IL-2 responses, DR8” value is reported as 0%; the “Percentage of donors demonstrating IL-4 responses, DR8” value was 0%; the “Percentage of donors demonstrating IL-10 responses, DR8” value was 0%; the “Percentage of donors demonstrating TNF-α responses, DR8” value was determined as 25%. For the same compound, the “Percentage of donors demonstrating IFN-γ responses, DR9” value in experiment [2] (DR9 donors N=4, ICCS after 14-day co-culture) is recorded as 0%. In experiment [2] (DR9 donors N=4, ICCS), the “Percentage of donors demonstrating IL-2 responses, DR9” value was found to be 0%; the “Percentage of donors demonstrating IL-4 responses, DR9” value worked out at 0%; the “Percentage of donors demonstrating IL-10 responses, DR9” value worked out at 0%; the “Percentage of donors demonstrating TNF-α responses, DR9” value is reported as 25%. In addition, the “Percentage of donors demonstrating IFN-γ responses, DR11” value in experiment [2] (DR11 donors N=4, ICCS after 14-day co-culture) amounted to 25%. Further, in experiment [2] (DR11 donors N=4, ICCS), the “Percentage of donors demonstrating IL-2 responses, DR11” value worked out at 25%; the “Percentage of donors demonstrating IL-4 responses, DR11” value stood at 0%; the “Percentage of donors demonstrating IL-10 responses, DR11” value was determined as 0%; the “Percentage of donors demonstrating TNF-α responses, DR11” value amounted to 50%. Further, the “Percentage of donors demonstrating IFN-γ responses, DR13” value in experiment [2] (DR13 donors N=7, ICCS after 14-day co-culture) came out at 0%. In experiment [2] (DR13 donors N=7, ICCS), the “Percentage of donors demonstrating IL-2 responses, DR13” value is recorded as 0%; the “Percentage of donors demonstrating IL-4 responses, DR13” value worked out at 0%; the “Percentage of donors demonstrating IL-10 responses, DR13” value came out at 0%; the “Percentage of donors demonstrating TNF-α responses, DR13” value stood at 14%. The “Percentage of donors demonstrating IFN-γ responses, DR15” value in experiment [2] (DR15 donors N=7, ICCS after 14-day co-culture) worked out at 14%. In addition, in experiment [2] (DR15 donors N=7, ICCS), the “Percentage of donors demonstrating IL-2 responses, DR15” value turned out to be 14%; the “Percentage of donors demonstrating IL-4 responses, DR15” value is 0%; the “Percentage of donors demonstrating IL-10 responses, DR15” value is 14%; the “Percentage of donors demonstrating TNF-α responses, DR15” value was determined as 29%.
For the compound ELDYENDIEK [Cluster 357_CVX154], the “IC50 (nM)” value in experiment [1] is “Non-Binder”.
On the same count and under the same terms, in the case of LSTEWSPCS [327_3D7 (9)] it was “Non-Binder”; in that of NVDENANAN [Cluster 292_3D7], “Non-Binder”.
